In US11292787B2, “Five-membered-fused-six-membered aza-aromatic ring compound, preparation method thereof, pharmaceutical composition and application thereof” (XIAMEN UNIVERSITY, priority 2017, dated 2022):

Biological target: T1, K-Ras protein (Homo sapiens, UniProt P01116, G12V)
T1 construct: in SW620 cells, compound I-a-1 can effectively enhance the degradation of endogenous K-RAS-G12V proteins; endogenous in cells; host or cells: SW-620
Experiment: K-Ras protein degradation rate by Western blot in SW-620 cells
Assay type: cell-based
Details: 10 μM, SW-620 cells, 24 h, Western blot, relative to DMSO control; read-out: Degradation rate of compounds at 10 μM on Ras protein (%)
Description: Inhibitory activity of compounds on K-RAS was evaluated by the degradation rate of protein level of administration group relative to control group (Cell Rep 2014, 7, 871-882).
The specific method was as follows:
1. Cell plating: SW-620 cells in logarithmic growth phase were inoculated into a 24-well plate at 2×10^4/well, and cultured in a 37° C., 5% CO2 incubator.
2. Administering drug to cells: after 24 h of culture, various drug stocks […]; the original solution in the 24-well plate was discarded, to which was added the obtained drug solution, with the DMSO group as the blank control; after the drug solution was added, the 24-well plate was transferred to the 37° C. CO2 incubator to continue the culture.
3. Detection of K-Ras protein level: after 24 h of administration and culture, the liquid in the well was discarded, the cells were routinely collected, and rinsed twice with 1×PBS, a cell lysate was added to extract the total cellular protein, and the protein concentration was determined by BCA method. 30 μg of the protein sample was taken for SDS-polyacrylamide gel electrophoretic transmembrane, the membrane was blocked sequentially, incubated with K-Ras antibody (1:1000) and internal reference antibody β-actin (1:2000) respectively overnight at 4° C., rinsed with TBST for 5 min×3 times, then incubated with the addition of the corresponding horseradish peroxidase-labeled secondary antibody (1:5000) for 1-2 h, and rinsed with TBST for 5 min×3 times. Finally, chemiluminescence image was acquired using Image Lab software.
4. Calculation of single-point K-Ras protein degradation rate: quantitative and calibration analysis of K-Ras and β-actin were conducted using Image-Lab software, and then the intracellular K-Ras degradation rate was calculated according to the following formula: single-point K-Ras protein degradation rate (%)=(control group−administration group)/control group×100%. The drug with degradation rate ≥20% was selected for soft agar experiment.

T1 sequence (P01116 1-188 isoform P01116-2 G12V): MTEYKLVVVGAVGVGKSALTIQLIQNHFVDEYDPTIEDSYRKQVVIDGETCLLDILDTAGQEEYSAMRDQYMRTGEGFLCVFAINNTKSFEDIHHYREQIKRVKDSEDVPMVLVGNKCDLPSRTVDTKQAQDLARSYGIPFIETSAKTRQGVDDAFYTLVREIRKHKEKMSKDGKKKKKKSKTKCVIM

| SMILES | percent K-Ras protein degradation (single point) at 10 µM [%] |
| --- | --- |
| O=C(Nc1ccccc1)c1csc(-c2n[nH]c3ccccc23)c1 [I-a-11] | 30 |
| O=C(NCc1c(F)cccc1Cl)c1c[nH]c(-c2n[nH]c3ccccc23)c1 [I-b-1] | 50 |
| O=C(Nc1ccccc1)c1c[nH]c(-c2n[nH]c3ccccc23)c1 [I-b-2] | 56 |
| O=C(NCc1c(F)cccc1Cl)c1coc(-c2n[nH]c3ccccc23)c1 [I-c-1] | 11 |
| O=C(NCc1c(F)cccc1Cl)c1cccc(-c2n[nH]c3ccccc23)c1 [I-d-1] | 2 |
| O=C(Nc1ccccc1)c1ccc(-c2n[nH]c3ccccc23)cc1 [I-e-2] | 12 |
| O=C(NCc1c(F)cccc1Cl)c1ccc(-c2n[nH]c3ccccc23)s1 [I-f-1] | 20 |
| O=C(Nc1ccccc1)c1ccc(-c2n[nH]c3ccccc23)s1 [I-f-2] | 25 |
| O=C(NCc1c(F)cccc1Cl)c1ccc(-c2n[nH]c3ccccc23)[nH]1 [I-g-1] | 30 |
| O=C(NCc1c(F)cccc1Cl)c1coc(-c2c[nH]c3ncccc23)c1 [II-b-1] | 52 |
| O=C(Nc1ccccc1)c1coc(-c2c[nH]c3ncccc23)c1 [II-b-2] | 50 |
| O=C(NCc1c(F)cccc1Cl)c1ccc(-c2c[nH]c3ncccc23)s1 [II-e-1] | 15 |
| O=C(NCc1c(F)cccc1Cl)c1coc(-c2n[nH]c3ncccc23)c1 [III-b-1] | 35 |
| O=C(Nc1c(F)cccc1Cl)c1cccc(-c2n[nH]c3ncccc23)c1 [III-c-3] | 16 |
| O=C(Nc1ccccc1)c1ccc(-c2n[nH]c3ncccc23)cc1 [III-d-2] | 18 |
| O=C(Nc1c(F)cccc1Cl)c1ccc(-c2n[nH]c3ncccc23)cc1 [III-d-3] | 27 |
| O=C(NCc1c(F)cccc1Cl)c1ccc(-c2n[nH]c3ncccc23)s1 [III-e-1] | 40 |
| O=C(Nc1ccccc1)c1ccc(-c2n[nH]c3ncccc23)s1 [III-e-2] | 40 |
| O=C(NCc1c(F)cccc1Cl)c1c[nH]c(-c2n[nH]c3ncccc23)c1 [III-f-1] | 60 |
| O=C(NCc1c(F)cccc1F)c1c[nH]c(-c2n[nH]c3ncccc23)c1 [III-f-3] | 6 |
| O=C(NCc1ccc(Cl)c(Cl)c1)c1c[nH]c(-c2n[nH]c3ncccc23)c1 [III-f-4] | 19 |

| SMILES | percent K-Ras protein degradation (single point) at 10 µM [%] |
| --- | --- |
| O=C(NCc1ccc(Cl)cc1)c1c[nH]c(-c2n[nH]c3ncccc23)c1 [III-f-6] | 15 |
| O=C(Nc1ccccc1)c1c[nH]c(-c2n[nH]c3ncccc23)c1 [III-f-10] | 18 |
| O=C(Nc1cccc(F)c1)c1c[nH]c(-c2n[nH]c3ncccc23)c1 [III-f-13] | 16 |
| CC(C)Oc1ccc(NC(=O)c2c[nH]c(-c3n[nH]c4ncccc34)c2)cc1 [III-f-15] | 14 |
| Cc1ccc(NC(=O)c2c[nH]c(-c3n[nH]c4ncccc34)c2)cc1 [III-f-16] | 15 |
| COc1ccc(NC(=O)c2c[nH]c(-c3n[nH]c4ncccc34)c2)cc1 [III-f-17] | 19 |
| O=C(Nc1ccc(OC(F)(F)F)cc1)c1c[nH]c(-c2n[nH]c3ncccc23)c1 [III-f-18] | 15 |
| O=C(NCCc1ccccc1)c1c[nH]c(-c2n[nH]c3ncccc23)c1 [III-f-24] | 13 |
| O=C(NC1CCCCC1)c1c[nH]c(-c2n[nH]c3ncccc23)c1 [III-f-27] | 14 |
| N#Cc1ccc(CNC(=O)c2c[nH]c(-c3n[nH]c4ncccc34)c2)cc1 [III-f-31] | 45 |
| O=C(NCc1ccccc1O)c1c[nH]c(-c2n[nH]c3ncccc23)c1 [III-f-35] | 50 |
| O=C(NCc1ccccn1)c1c[nH]c(-c2n[nH]c3ncccc23)c1 [III-f-37] | 35 |
| O=C(NCc1ccccc1Br)c1c[nH]c(-c2n[nH]c3ncccc23)c1 [III-f-42] | 70 |
| O=C(NCc1ccc(Br)cc1)c1c[nH]c(-c2n[nH]c3ncccc23)c1 [III-f-43] | 40 |
| O=C(NCc1ccccc1F)c1c[nH]c(-c2n[nH]c3ncccc23)c1 [III-f-45] | 50 |
| O=C(NCc1ccccc1Cl)c1c[nH]c(-c2n[nH]c3ncccc23)c1 [III-f-47] | 50 |
| Cc1ccccc1CNC(=O)c1c[nH]c(-c2n[nH]c3ncccc23)c1 [III-f-51] | 70 |
| Cc1ccc(CNC(=O)c2c[nH]c(-c3n[nH]c4ncccc34)c2)cc1 [III-f-52] | 35 |
| COc1ccccc1CNC(=O)c1c[nH]c(-c2n[nH]c3ncccc23)c1 [III-f-54] | 50 |
| COc1ccc(CNC(=O)c2c[nH]c(-c3n[nH]c4ncccc34)c2)cc1 [III-f-55] | 25 |
| O=C(NCc1cc(F)ccc1F)c1c[nH]c(-c2n[nH]c3ncccc23)c1 [III-f-56] | 70 |

Other lines, results leading:

| percent K-Ras protein degradation (single point) at 10 µM [%] | SMILES |
| --- | --- |
| 20 | O=C(NCc1cccc(C(F)(F)F)c1)c1csc(-c2n[nH]c3ccccc23)c1 [I-a-8] |
| 30 | O=C(NCc1cc(C(F)(F)F)ccc1F)c1csc(-c2n[nH]c3ccccc23)c1 [I-a-9] |
| 9 | O=C(Nc1ccccc1)c1csc(-c2n[nH]c3ncccc23)c1 [III-a-2] |
| 60 | O=C(NCc1cccc(C(F)(F)F)c1)c1csc(-c2n[nH]c3ncccc23)c1 [III-a-3] |
| 60 | O=C(NCc1cc(C(F)(F)F)ccc1F)c1csc(-c2n[nH]c3ncccc23)c1 [III-a-4] |
| 13 | O=C(Nc1cccc(C(F)(F)F)c1)c1c[nH]c(-c2n[nH]c3ncccc23)c1 [III-f-11] |
| 60 | N#Cc1cccc(CNC(=O)c2c[nH]c(-c3n[nH]c4ncccc34)c2)c1 [III-f-32] |
| 60 | O=C(NCc1ccc(C(F)(F)F)cc1)c1c[nH]c(-c2n[nH]c3ncccc23)c1 [III-f-34] |
| 50 | O=C(NCc1cccc(OC(F)(F)F)c1)c1c[nH]c(-c2n[nH]c3ncccc23)c1 [III-f-38] |
| 60 | O=C(NCc1ccccc1OC(F)(F)F)c1c[nH]c(-c2n[nH]c3ncccc23)c1 [III-f-39] |
| 30 | O=C(NCc1ccc(OC(F)(F)F)cc1)c1c[nH]c(-c2n[nH]c3ncccc23)c1 [III-f-40] |
| 60 | O=C(NCc1cccc(Br)c1)c1c[nH]c(-c2n[nH]c3ncccc23)c1 [III-f-41] |
| 70 | O=C(NCc1cccc(F)c1)c1c[nH]c(-c2n[nH]c3ncccc23)c1 [III-f-44] |
| 60 | O=C(NCc1cccc(Cl)c1)c1c[nH]c(-c2n[nH]c3ncccc23)c1 [III-f-46] |
| 60 | O=C(NCc1cccc([N+](=O)[O-])c1)c1c[nH]c(-c2n[nH]c3ncccc23)c1 [III-f-48] |
| 50 | Nc1cccc(CNC(=O)c2c[nH]c(-c3n[nH]c4ncccc34)c2)c1 [III-f-49] |
| 40 | Cc1cccc(CNC(=O)c2c[nH]c(-c3n[nH]c4ncccc34)c2)c1 [III-f-50] |
| 50 | COc1cccc(CNC(=O)c2c[nH]c(-c3n[nH]c4ncccc34)c2)c1 [III-f-53] |
| 70 | O=C(NCc1ccc(F)c(C(F)(F)F)c1)c1c[nH]c(-c2n[nH]c3ncccc23)c1 [III-f-57] |
| 75 | O=C(NCc1cc(F)cc(C(F)(F)F)c1)c1c[nH]c(-c2n[nH]c3ncccc23)c1 [III-f-58] |
| 60 | O=C(NCc1cc(C(F)(F)F)cc(C(F)(F)F)c1)c1c[nH]c(-c2n[nH]c3ncccc23)c1 [III-f-59] |
| 65 | O=C(NCc1cccc(C(F)(F)F)c1F)c1c[nH]c(-c2n[nH]c3ncccc23)c1 [III-f-60] |
| 50 | O=C(NCc1ccc(Cl)c(C(F)(F)F)c1)c1c[nH]c(-c2n[nH]c3ncccc23)c1 [III-f-61] |
| 70 | O=C(NCc1cc(C(F)(F)F)ccc1F)c1c[nH]c(-c2n[nH]c3ncccc23)c1 [III-f-62] |
